These are literature values, as cited in US20020068684A1, “Stripping and cleaning compositions” (priority 1999, published 2002).

For this series the following is noted: from CRC tables.

With `Oc1ccccc1O` [Catechol], the PKa is 9.85.
